Experimental data: the kinase profiling compilation of Christmann-Franck et al. (2016)

Columns and labels:
Assay in all cases: KINOMEscan competition binding
Conditions in all cases: compound 2.0 µM
[1] = tested on: KIT (human), P10721 [V559D/T670I]
CDK3 (human) = CDK3 (human) (UniProt Q00526)
AURKC (human) = AURKC (human) (UniProt Q9UQB9)
MST1R (human) = MST1R (human) (UniProt Q04912)
ROCK1 (human) = ROCK1 (human) (UniProt Q13464)
ANKK1 (human) = ANKK1 (human) (UniProt Q8NFD2)
CDC42BPB (human) = CDC42BPB (human) (UniProt Q9Y5S2)
Sequence of CDC42BPB (human) (Q9Y5S2 whole entry, looked up): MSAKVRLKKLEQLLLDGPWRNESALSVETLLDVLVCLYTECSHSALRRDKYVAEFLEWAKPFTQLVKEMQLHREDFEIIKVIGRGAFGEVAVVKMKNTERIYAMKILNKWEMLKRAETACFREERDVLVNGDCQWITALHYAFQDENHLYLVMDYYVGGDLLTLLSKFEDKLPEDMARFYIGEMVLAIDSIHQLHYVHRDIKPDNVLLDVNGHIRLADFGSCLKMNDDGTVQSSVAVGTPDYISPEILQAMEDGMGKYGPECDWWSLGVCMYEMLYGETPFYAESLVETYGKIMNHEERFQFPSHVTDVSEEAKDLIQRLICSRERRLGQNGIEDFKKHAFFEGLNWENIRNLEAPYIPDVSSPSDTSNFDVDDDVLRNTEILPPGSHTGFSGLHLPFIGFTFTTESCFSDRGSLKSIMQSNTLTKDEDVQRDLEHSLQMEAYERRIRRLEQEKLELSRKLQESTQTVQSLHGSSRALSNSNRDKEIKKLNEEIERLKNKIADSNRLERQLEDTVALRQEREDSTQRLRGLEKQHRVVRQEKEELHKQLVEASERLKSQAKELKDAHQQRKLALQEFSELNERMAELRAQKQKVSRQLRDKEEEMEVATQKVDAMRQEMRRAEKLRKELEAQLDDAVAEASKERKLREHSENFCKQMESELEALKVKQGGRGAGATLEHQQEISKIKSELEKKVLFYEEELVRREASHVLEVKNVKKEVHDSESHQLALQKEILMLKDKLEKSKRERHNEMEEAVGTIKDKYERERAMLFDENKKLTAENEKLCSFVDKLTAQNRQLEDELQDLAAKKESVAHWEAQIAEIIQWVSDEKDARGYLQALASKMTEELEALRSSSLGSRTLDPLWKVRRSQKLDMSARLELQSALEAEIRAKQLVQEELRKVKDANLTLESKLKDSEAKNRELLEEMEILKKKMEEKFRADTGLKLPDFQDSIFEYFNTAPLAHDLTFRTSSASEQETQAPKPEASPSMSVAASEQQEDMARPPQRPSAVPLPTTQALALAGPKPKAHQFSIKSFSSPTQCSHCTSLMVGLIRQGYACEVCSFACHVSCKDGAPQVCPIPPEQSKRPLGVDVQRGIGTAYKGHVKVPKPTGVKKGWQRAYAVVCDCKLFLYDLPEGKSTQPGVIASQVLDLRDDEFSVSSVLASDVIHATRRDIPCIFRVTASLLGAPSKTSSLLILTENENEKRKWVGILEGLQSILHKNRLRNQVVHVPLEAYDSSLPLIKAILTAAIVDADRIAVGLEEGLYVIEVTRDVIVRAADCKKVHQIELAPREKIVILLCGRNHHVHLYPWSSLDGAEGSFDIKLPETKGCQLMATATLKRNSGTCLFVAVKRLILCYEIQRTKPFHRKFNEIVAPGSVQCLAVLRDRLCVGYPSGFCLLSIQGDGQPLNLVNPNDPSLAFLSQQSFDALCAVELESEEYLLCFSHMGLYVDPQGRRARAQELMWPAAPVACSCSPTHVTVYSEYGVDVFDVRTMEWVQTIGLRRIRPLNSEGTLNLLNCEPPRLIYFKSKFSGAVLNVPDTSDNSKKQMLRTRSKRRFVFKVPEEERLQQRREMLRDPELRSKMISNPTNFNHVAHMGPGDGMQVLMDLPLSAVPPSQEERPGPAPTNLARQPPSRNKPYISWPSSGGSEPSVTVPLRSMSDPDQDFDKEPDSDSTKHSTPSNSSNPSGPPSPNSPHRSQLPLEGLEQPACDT

MAP3K5 (human) = MAP3K5 (human) (UniProt Q99683)
ROCK2 (human) = ROCK2 (human) (UniProt O75116)
[2] = tested on: EGFR (human), P00533 [G719C]
ZAP70 (human) = ZAP70 (human) (UniProt P43403)
Sequence of ZAP70 (human) (P43403 whole entry, looked up): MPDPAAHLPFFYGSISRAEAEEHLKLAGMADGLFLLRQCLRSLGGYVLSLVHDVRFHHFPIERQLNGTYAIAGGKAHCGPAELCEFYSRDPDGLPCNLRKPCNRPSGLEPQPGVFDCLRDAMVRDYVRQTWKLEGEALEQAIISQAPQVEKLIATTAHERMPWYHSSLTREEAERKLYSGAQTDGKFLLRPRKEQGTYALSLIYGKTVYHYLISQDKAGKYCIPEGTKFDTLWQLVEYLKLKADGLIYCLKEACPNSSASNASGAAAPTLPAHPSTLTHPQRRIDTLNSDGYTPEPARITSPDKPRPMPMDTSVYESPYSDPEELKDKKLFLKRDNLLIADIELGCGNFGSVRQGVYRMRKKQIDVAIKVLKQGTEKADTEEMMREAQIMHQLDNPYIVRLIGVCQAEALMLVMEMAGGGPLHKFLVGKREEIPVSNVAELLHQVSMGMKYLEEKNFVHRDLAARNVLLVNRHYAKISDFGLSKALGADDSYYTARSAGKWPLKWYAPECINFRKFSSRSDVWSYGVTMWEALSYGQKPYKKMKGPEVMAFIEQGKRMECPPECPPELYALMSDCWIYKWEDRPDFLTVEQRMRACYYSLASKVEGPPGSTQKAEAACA

FGFR3 (human) = FGFR3 (human) (UniProt P22607)
GSK3B (human) = GSK3B (human) (UniProt P49841)
ERBB4 (human) = ERBB4 (human) (UniProt Q15303)
MAP4K2 (human) = MAP4K2 (human) (UniProt Q12851)
Sequence of MAP4K2 (human) (Q12851 whole entry, looked up): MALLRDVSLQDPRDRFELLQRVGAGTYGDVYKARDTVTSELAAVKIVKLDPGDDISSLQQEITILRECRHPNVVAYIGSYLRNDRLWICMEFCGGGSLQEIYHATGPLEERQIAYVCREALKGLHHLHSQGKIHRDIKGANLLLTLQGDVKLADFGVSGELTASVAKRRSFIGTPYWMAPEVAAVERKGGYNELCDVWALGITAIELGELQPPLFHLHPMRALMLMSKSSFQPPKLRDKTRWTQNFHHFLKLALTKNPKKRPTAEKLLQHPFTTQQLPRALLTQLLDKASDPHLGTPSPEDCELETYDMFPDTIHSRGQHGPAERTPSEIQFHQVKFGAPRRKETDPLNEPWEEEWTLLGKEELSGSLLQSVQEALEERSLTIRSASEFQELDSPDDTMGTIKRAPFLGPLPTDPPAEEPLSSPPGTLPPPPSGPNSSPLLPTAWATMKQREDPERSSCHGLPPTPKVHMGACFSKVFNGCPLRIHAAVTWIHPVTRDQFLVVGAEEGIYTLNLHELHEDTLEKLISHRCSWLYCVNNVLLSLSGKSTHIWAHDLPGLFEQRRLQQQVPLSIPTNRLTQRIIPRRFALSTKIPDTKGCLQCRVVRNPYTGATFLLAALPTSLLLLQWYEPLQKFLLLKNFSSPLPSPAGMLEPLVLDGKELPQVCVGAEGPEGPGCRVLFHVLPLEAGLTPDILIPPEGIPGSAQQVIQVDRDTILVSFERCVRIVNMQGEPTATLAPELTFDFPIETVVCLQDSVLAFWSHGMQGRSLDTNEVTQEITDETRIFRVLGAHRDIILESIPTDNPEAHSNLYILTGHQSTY

MKNK2 (human) = MKNK2 (human) (UniProt Q9HBH9)
MAP2K3 (human) = MAP2K3 (human) (UniProt P46734)
TIE1 (human) = TIE1 (human) (UniProt P35590)
MKNK1 (human) = MKNK1 (human) (UniProt Q9BUB5)
[3] = tested on: KIT (human), P10721 [V559D/V654A]
CSNK1A1 (human) = CSNK1A1 (human) (UniProt P48729)
[4] = tested on: PIK3CA (human), P42336 [E542K]
[5] = tested on: EIF2AK4 KD2 (human), Q9P2K8 [S808G]
Sequence of EIF2AK4 KD2 (human), Q9P2K8 [S808G] (Q9P2K8 whole entry S808G, looked up): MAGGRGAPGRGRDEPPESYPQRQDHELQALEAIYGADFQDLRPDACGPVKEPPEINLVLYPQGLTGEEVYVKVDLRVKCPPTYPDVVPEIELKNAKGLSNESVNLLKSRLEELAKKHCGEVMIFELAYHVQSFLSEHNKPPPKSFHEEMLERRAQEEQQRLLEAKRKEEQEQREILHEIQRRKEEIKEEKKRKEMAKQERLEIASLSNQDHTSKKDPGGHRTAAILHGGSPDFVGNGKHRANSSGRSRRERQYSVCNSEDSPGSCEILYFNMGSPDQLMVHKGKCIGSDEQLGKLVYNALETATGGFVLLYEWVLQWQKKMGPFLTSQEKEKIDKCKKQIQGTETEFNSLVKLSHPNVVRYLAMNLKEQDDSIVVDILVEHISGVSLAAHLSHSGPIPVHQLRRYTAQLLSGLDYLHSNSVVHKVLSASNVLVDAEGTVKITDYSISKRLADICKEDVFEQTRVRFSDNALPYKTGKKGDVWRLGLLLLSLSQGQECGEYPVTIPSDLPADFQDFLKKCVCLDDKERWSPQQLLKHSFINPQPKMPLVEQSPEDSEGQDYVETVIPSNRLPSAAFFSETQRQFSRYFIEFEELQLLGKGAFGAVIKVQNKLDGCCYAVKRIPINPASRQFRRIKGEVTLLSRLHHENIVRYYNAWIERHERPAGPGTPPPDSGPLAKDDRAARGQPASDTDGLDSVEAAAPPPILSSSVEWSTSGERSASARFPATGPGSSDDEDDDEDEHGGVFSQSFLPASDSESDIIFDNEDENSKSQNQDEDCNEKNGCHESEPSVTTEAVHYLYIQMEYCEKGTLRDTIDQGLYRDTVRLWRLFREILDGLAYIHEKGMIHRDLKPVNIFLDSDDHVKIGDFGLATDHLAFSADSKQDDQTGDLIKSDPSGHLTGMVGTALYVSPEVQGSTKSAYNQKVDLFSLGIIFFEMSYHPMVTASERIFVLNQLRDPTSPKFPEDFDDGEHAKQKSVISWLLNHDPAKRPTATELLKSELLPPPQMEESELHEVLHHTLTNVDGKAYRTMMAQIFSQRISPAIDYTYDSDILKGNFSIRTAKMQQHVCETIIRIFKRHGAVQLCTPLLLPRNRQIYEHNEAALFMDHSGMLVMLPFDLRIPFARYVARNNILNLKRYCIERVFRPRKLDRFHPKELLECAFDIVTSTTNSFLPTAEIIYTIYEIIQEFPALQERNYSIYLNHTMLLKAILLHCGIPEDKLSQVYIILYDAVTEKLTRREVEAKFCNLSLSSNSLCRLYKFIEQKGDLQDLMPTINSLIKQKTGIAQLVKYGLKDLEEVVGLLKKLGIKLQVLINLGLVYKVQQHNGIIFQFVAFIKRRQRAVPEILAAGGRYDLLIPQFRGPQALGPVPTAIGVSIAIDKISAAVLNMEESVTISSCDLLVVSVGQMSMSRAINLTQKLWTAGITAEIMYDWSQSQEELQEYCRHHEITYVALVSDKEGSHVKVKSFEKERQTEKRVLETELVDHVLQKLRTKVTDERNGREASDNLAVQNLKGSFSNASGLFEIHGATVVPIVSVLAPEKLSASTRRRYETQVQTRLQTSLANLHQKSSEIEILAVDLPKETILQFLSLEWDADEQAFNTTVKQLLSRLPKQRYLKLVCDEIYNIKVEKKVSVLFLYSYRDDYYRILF

CAMK2B (human) = CAMK2B (human) (UniProt Q13554)
[6] = tested on: EGFR (human), P00533 [752-759 del]
KIT (human) = KIT (human) (UniProt P10721)
NEK3 (human) = NEK3 (human) (UniProt P51956)
[7] = target: JAK1 JH1 catalytic (human) (UniProt P23458)
RPS6KA5 KD2 (human) = RPS6KA5 KD2 (human) (UniProt O75582)
CAMK1D (human) = CAMK1D (human) (UniProt Q8IU85)
PAK7 (human) = PAK7 (human) (UniProt Q9P286)
PAK6 (human) = PAK6 (human) (UniProt Q9NQU5)
PRPF4B (human) = PRPF4B (human) (UniProt Q13523)
[8] = tested on: EGFR (human), P00533 [747-751 del / S ins]
DYRK2 (human) = DYRK2 (human) (UniProt Q92630)
RPS6KA4 KD2 (human) = RPS6KA4 KD2 (human) (UniProt O75676)
[9] = tested on: PIK3CA (human), P42336 [M1043I]
TXK (human) = TXK (human) (UniProt P42681)
PRKD3 (human) = PRKD3 (human) (UniProt O94806)
NUAK2 (human) = NUAK2 (human) (UniProt Q9H093)
FER (human) = FER (human) (UniProt P16591)

Sequence of AURKC (human) (Q9UQB9 whole entry, looked up): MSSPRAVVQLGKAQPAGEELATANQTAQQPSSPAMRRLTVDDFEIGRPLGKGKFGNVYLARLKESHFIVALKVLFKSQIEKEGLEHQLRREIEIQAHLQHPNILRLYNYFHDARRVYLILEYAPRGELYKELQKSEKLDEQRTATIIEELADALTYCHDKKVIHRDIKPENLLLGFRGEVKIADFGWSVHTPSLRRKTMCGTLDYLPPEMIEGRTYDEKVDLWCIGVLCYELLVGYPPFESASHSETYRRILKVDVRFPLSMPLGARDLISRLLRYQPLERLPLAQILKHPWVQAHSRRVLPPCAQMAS

N#Cc1ccc2ncnc(NCCc3ccc4ccccc4c3)c2c1 gave a kinase still bound, per cent of control [1] of 86%, a kinase still bound, per cent of control (CDK3 (human)) of 100% and a kinase still bound, per cent of control (AURKC (human)) of 84%. It also gave a kinase still bound, per cent of control (MST1R (human)) of 100%, a kinase still bound, per cent of control (ROCK1 (human)) of 100% and a kinase still bound, per cent of control (ANKK1 (human)) of 100%. It also gave a kinase still bound, per cent of control (CDC42BPB (human)) of 100%, a kinase still bound, per cent of control (MAP3K5 (human)) of 95% and a kinase still bound, per cent of control (ROCK2 (human)) of 92%. For the same molecule, the kinase still bound, per cent of control [2] was 96%, the kinase still bound, per cent of control (ZAP70 (human)) was 94% and the kinase still bound, per cent of control (FGFR3 (human)) was 100%. It also gave a kinase still bound, per cent of control (GSK3B (human)) of 89%, a kinase still bound, per cent of control (ERBB4 (human)) of 98% and a kinase still bound, per cent of control (MAP4K2 (human)) of 60%. For the same molecule, the kinase still bound, per cent of control (MKNK2 (human)) was 98%, the kinase still bound, per cent of control (MAP2K3 (human)) was 86% and the kinase still bound, per cent of control (TIE1 (human)) was 90%. For the same molecule, the kinase still bound, per cent of control (MKNK1 (human)) was 64%, the kinase still bound, per cent of control [3] was 100% and the kinase still bound, per cent of control (CSNK1A1 (human)) was 87%. The kinase still bound, per cent of control [4] was 84%, the kinase still bound, per cent of control [5] was 80% and the kinase still bound, per cent of control (CAMK2B (human)) was 88%. The kinase still bound, per cent of control [6] was 80%, the kinase still bound, per cent of control (KIT (human)) was 97% and the kinase still bound, per cent of control (NEK3 (human)) was 100%. For the same molecule, the kinase still bound, per cent of control [7] was 59%, the kinase still bound, per cent of control (RPS6KA5 KD2 (human)) was 100% and the kinase still bound, per cent of control (CAMK1D (human)) was 100%. For the same molecule, the kinase still bound, per cent of control (PAK7 (human)) was 100%, the kinase still bound, per cent of control (PAK6 (human)) was 80% and the kinase still bound, per cent of control (PRPF4B (human)) was 100%. It also gave a kinase still bound, per cent of control [8] of 71%, a kinase still bound, per cent of control (DYRK2 (human)) of 85% and a kinase still bound, per cent of control (RPS6KA4 KD2 (human)) of 90%. It also gave a kinase still bound, per cent of control [9] of 93%, a kinase still bound, per cent of control (TXK (human)) of 94% and a kinase still bound, per cent of control (PRKD3 (human)) of 99%. For the same molecule, the kinase still bound, per cent of control (NUAK2 (human)) was 77% and the kinase still bound, per cent of control (FER (human)) was 100%.
